Source: the supplement of paper PMC10307832

Assays:
Assay in all cases: relative viability (nuclei count vs DMSO), 5 days (fraction); higher = more cells survive
A-427 = test system: A-427
How it was run: (§1)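 A single step with final 0.05% Triton X-100, 1% formaldehyde and 1 ug/ml Hoechst fixed the cells and stained nuclei 5 days after treatment. Lung cancer cell lines in 1536-well plates had been treated by pin tool the day after seeding with one drug alone or a fixed anchor-drug dose plus five library-drug doses (not always all listed) in √10 steps, and nuclei were counted on 4× images. Relative viability is the ratio of nuclei in treated wells to nuclei in vehicle wells, taken as the median of duplicate plates.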

CAL-12T = test system: CAL-12T
How it was run: as §1

COR-L 105 = test system: COR-L 105
How it was run: as §1

EMC-BAC-2 = test system: EMC-BAC-2
How it was run: as §1

HARA = test system: HARA
How it was run: as §1

HCC-827 = test system: HCC-827
How it was run: as §1

HOP-62 = test system: HOP-62
How it was run: as §1

LCLC-103H = test system: LCLC-103H
How it was run: as §1

NCI-H1355 = test system: NCI-H1355
How it was run: as §1

NCI-H1395 = test system: NCI-H1395
How it was run: as §1

NCI-H1437 = test system: NCI-H1437
How it was run: as §1

NCI-H1755 = test system: NCI-H1755
How it was run: as §1

NCI-H1792 = test system: NCI-H1792
How it was run: as §1

NCI-H1915 = test system: NCI-H1915
How it was run: as §1

NCI-H1975 = test system: NCI-H1975
How it was run: as §1

NCI-H2009 = test system: NCI-H2009
How it was run: as §1

NCI-H2228 = test system: NCI-H2228
How it was run: as §1

NCI-H23 = test system: NCI-H23
How it was run: as §1

NCI-H460 = test system: NCI-H460
How it was run: as §1

NCI-H727 = test system: NCI-H727
How it was run: as §1

SK-LU-1 = test system: SK-LU-1
How it was run: as §1

SW 1573 = test system: SW 1573
How it was run: as §1

O=C(O)c1ccc(-c2c[nH]c3ncc(-c4ccccc4)cc23)cc1C1CCCC1 + CCNC(=O)c1noc(-c2cc(C(C)C)c(O)cc2O)c1-c1ccc(CN2CCOCC2)cc1 [Luminespib] (partner 0.01 µM)
relative viability (A-427; first compound 0.04 µM): 0.956
relative viability (A-427; first compound 0.1265 µM): 1.01
relative viability (A-427; first compound 0.4 µM): 0.647
relative viability (A-427; first compound 1.265 µM): 0.577
relative viability (CAL-12T; first compound 0.04 µM): 0.57
relative viability (CAL-12T; first compound 0.1265 µM): 0.354
relative viability (CAL-12T; first compound 0.4 µM): 0.519
relative viability (CAL-12T; first compound 1.265 µM): 0.268
relative viability (COR-L 105; first compound 0.04 µM): 0.933
relative viability (COR-L 105; first compound 0.1265 µM): 0.76
relative viability (COR-L 105; first compound 0.4 µM): 0.762
relative viability (COR-L 105; first compound 1.265 µM): 0.773
relative viability (EMC-BAC-2; first compound 0.04 µM): 1.19
relative viability (EMC-BAC-2; first compound 0.1265 µM): 1.16
relative viability (EMC-BAC-2; first compound 0.4 µM): 1.13
relative viability (EMC-BAC-2; first compound 1.265 µM): 0.975
relative viability (HARA; first compound 0.04 µM): 0.767
relative viability (HARA; first compound 0.1265 µM): 0.748
relative viability (HARA; first compound 0.4 µM): 0.141
relative viability (HARA; first compound 1.265 µM): 0.418
relative viability (HCC-827; first compound 0.04 µM): 0.602
relative viability (HCC-827; first compound 0.1265 µM): 0.793
relative viability (HCC-827; first compound 0.4 µM): 0.413
relative viability (HCC-827; first compound 1.265 µM): 0.485
relative viability (HOP-62; first compound 0.04 µM): 0.989
relative viability (HOP-62; first compound 0.1265 µM): 0.997
relative viability (HOP-62; first compound 0.4 µM): 0.86
relative viability (HOP-62; first compound 1.265 µM): 0.737
relative viability (LCLC-103H; first compound 0.04 µM): 1.08
relative viability (LCLC-103H; first compound 0.1265 µM): 1.05
relative viability (LCLC-103H; first compound 0.4 µM): 0.84
relative viability (LCLC-103H; first compound 1.265 µM): 0.713
relative viability (NCI-H1355; first compound 0.04 µM): 0.692
relative viability (NCI-H1355; first compound 0.1265 µM): 0.622
relative viability (NCI-H1355; first compound 0.4 µM): 0.464
relative viability (NCI-H1355; first compound 1.265 µM): 0.384
relative viability (NCI-H1395; first compound 0.04 µM): 0.726
relative viability (NCI-H1395; first compound 0.1265 µM): 0.636
relative viability (NCI-H1395; first compound 0.4 µM): 0.534
relative viability (NCI-H1395; first compound 1.265 µM): 0.606
relative viability (NCI-H1437; first compound 0.04 µM): 1.09
relative viability (NCI-H1437; first compound 0.1265 µM): 1.07
relative viability (NCI-H1437; first compound 0.4 µM): 0.925
relative viability (NCI-H1437; first compound 1.265 µM): 0.603
relative viability (NCI-H1755; first compound 0.04 µM): 0.375
relative viability (NCI-H1755; first compound 0.1265 µM): 0.644
relative viability (NCI-H1755; first compound 0.4 µM): 0.695
relative viability (NCI-H1755; first compound 1.265 µM): 0.574
relative viability (NCI-H1792; first compound 0.1265 µM): 0.477
relative viability (NCI-H1792; first compound 0.4 µM): 0.351
relative viability (NCI-H1792; first compound 1.265 µM): 0.519
relative viability (NCI-H1915; first compound 0.04 µM): 0.784
relative viability (NCI-H1915; first compound 0.1265 µM): 0.714
relative viability (NCI-H1915; first compound 0.4 µM): 0.643
relative viability (NCI-H1915; first compound 1.265 µM): 0.506
relative viability (NCI-H1975; first compound 0.04 µM): 0.131
relative viability (NCI-H1975; first compound 0.1265 µM): 0.302
relative viability (NCI-H1975; first compound 0.4 µM): 0.199
relative viability (NCI-H1975; first compound 1.265 µM): 0.338
relative viability (NCI-H2009; first compound 0.04 µM): 1.05
relative viability (NCI-H2009; first compound 0.1265 µM): 1.03
relative viability (NCI-H2009; first compound 0.4 µM): 0.963
relative viability (NCI-H2009; first compound 1.265 µM): 0.75
relative viability (NCI-H2228; first compound 0.04 µM): 0.144
relative viability (NCI-H2228; first compound 0.1265 µM): 0.188
relative viability (NCI-H2228; first compound 0.4 µM): 0.0961
relative viability (NCI-H2228; first compound 1.265 µM): 0.0961
relative viability (NCI-H23; first compound 0.04 µM): 0.224
relative viability (NCI-H23; first compound 0.1265 µM): 0.217
relative viability (NCI-H23; first compound 0.4 µM): 0.217
relative viability (NCI-H23; first compound 1.265 µM): 0.2
relative viability (NCI-H460; first compound 0.04 µM): 0.0285
relative viability (NCI-H460; first compound 0.1265 µM): 0.0329
relative viability (NCI-H460; first compound 0.4 µM): 0.0398
relative viability (NCI-H460; first compound 1.265 µM): 0.0257
relative viability (NCI-H727; first compound 0.04 µM): 0.325
relative viability (NCI-H727; first compound 0.1265 µM): 0.41
relative viability (NCI-H727; first compound 0.4 µM): 0.638
relative viability (NCI-H727; first compound 1.265 µM): 0.281
relative viability (SK-LU-1; first compound 0.04 µM): 0.204
relative viability (SK-LU-1; first compound 0.1265 µM): 0.196
relative viability (SK-LU-1; first compound 0.4 µM): 0.231
relative viability (SK-LU-1; first compound 1.265 µM): 0.179
relative viability (SW 1573; first compound 0.04 µM): 0.563
relative viability (SW 1573; first compound 0.1265 µM): 0.486
relative viability (SW 1573; first compound 0.4 µM): 0.292
relative viability (SW 1573; first compound 1.265 µM): 0.383
